Measured values published in article PMC11911254 (Pharmacological Reports, 2025).
Several values for one entry are separate records, joined by “and”; a condition that tells them apart may be missing. Identical values can stand only once. Each block holds one compound with its values, some of them ahead of it.

Assay: Concentration of paracetamol and its metabolites in plasma, CSF and brain cortex by LC-MS/MS
Experimental: Drug injection protocol is illustrated in Fig. 1.
Male and female postnatal P4 pups and 7–8 week-old non-pregnant females were used. […] In combination therapy experiments, this dose was accompanied by one of the 7 other drugs (Table 1). For all experiments, animals were terminally anesthetized 30 min after the drug injection using inhaled isoflurane (IsoFlo 100% w/w, Abbott Laboratories), and blood, CSF, and brain samples were collected. Blood was collected directly from the right cardiac ventricle, CSF from the cisterna magna, and cortical brain samples from the frontal/parietal lobes dorsal to the lateral ventricles as described previously.
Pregnant E19 dams were anesthetized with ip urethane injection (25% w/v urethane, Sigma, 1 ml/100 g body weight) and placed on a 39 °C heating pad in the supine position. An endotracheal catheter was inserted to maintain a clear airway. Catheters were inserted into the femoral vein and artery for iv drug administration and arterial blood sampling respectively. The cannula was flushed with 0.5 ml of heparinized saline (Hospira Inc, 5,000 units/ml) after drug administration and following each arterial blood sample. Following drug administration to the dams, fetuses were exteriorized and serially collected starting at 30 min post-maternal injection. […] At collection, the viability of each fetus was assessed (presence of a heartbeat, the colour of the umbilical vessels) and blood, CSF, and brain samples were taken along with a time-matched maternal blood sample from the femoral artery. At the end of the experiment, a final maternal blood sample was taken directly from the left cardiac ventricle, and CSF and brain samples were collected.
This method has been described previously for valproate, lamotrigine, and olanzapine and was applied in the present study. Simultaneous quantification was performed for all compounds in plasma, brain, and CSF samples following the addition of respective stable isotope-labeled internal standards.
Linear response range was determined in untreated control rat plasma for each compound at 0.1, 1, 10, 50, 100, 200, 400, and 800 µg/ml.

[1] = E19 rats, maternal iv paracetamol 15 mg/kg + cimetidine 11 mg/kg (PARA+CIM, n=10), median (IQR)
[2] = E19 rats, maternal iv paracetamol 15 mg/kg + digoxin 0.03 mg/kg (PARA+DIG, n=9), median (IQR)
[3] = E19 rats, maternal iv paracetamol 15 mg/kg + lamotrigine 6 mg/kg (PARA+LTG, n=10), median (IQR)
[4] = E19 rats, maternal iv paracetamol 15 mg/kg + olanzapine 0.15 mg/kg (PARA+OLZ, n=10), median (IQR), all values if <3 detected
[5] = E19 rats, maternal iv paracetamol 15 mg/kg + valproate 30 mg/kg (PARA+VPA, n=10), median (IQR)
[6] = E19 rats, maternal iv paracetamol 15 mg/kg + valproate 30 mg/kg (PARA+VPA, n=10), median (IQR), all values if <3 detected
[7] = E19 rats, maternal iv paracetamol 15 mg/kg monotherapy (PARA, n=10), median (IQR)
[8] = P4 rats, 30 min after ip paracetamol 15 mg/kg + cimetidine 11 mg/kg (PARA+CIM, n=4), median (IQR)
[9] = P4 rats, 30 min after ip paracetamol 15 mg/kg + digoxin 0.03 mg/kg (PARA+DIG, n=4), median (IQR)
[10] = P4 rats, 30 min after ip paracetamol 15 mg/kg + fluvoxamine 1.5 mg/kg (PARA+FLX, n=4), median (IQR)
[11] = P4 rats, 30 min after ip paracetamol 15 mg/kg + fluvoxamine 1.5 mg/kg (PARA+FLX, n=4), median (IQR) or individual values
[12] = P4 rats, 30 min after ip paracetamol 15 mg/kg + lamotrigine 6 mg/kg (PARA+LTG, n=5), median (IQR)
[13] = P4 rats, 30 min after ip paracetamol 15 mg/kg + lithium 3.2 mg/kg (PARA+Li, n=4), median (IQR)
[14] = P4 rats, 30 min after ip paracetamol 15 mg/kg + olanzapine 0.15 mg/kg (PARA+OLZ, n=4), median (IQR)
[15] = P4 rats, 30 min after ip paracetamol 15 mg/kg + valproate 30 mg/kg (PARA+VPA, n=4), median (IQR) or individual values
[16] = P4 rats, 30 min after ip paracetamol 15 mg/kg monotherapy (PARA, n=4), median (IQR)
[17] = non-pregnant adult rats, 30 min after ip paracetamol 15 mg/kg + digoxin 0.03 mg/kg (PARA+DIG, n=3), median (IQR)
[18] = non-pregnant adult rats, 30 min after ip paracetamol 15 mg/kg + fluvoxamine 1.5 mg/kg (PARA+FLX, n=4), median (IQR)
[19] = non-pregnant adult rats, 30 min after ip paracetamol 15 mg/kg + fluvoxamine 1.5 mg/kg (PARA+FLX, n=4), median (IQR), individual values if <3 samples
[20] = non-pregnant adult rats, 30 min after ip paracetamol 15 mg/kg + lamotrigine 6 mg/kg (PARA+LTG, n=3), median (IQR), individual values if <3 samples
[21] = non-pregnant adult rats, 30 min after ip paracetamol 15 mg/kg + olanzapine 0.15 mg/kg (PARA+OLZ, n=4), median (IQR)
[22] = non-pregnant adult rats, 30 min after ip paracetamol 15 mg/kg monotherapy (PARA, n=6), median (IQR)

Concentration in CSF [1]: 0.06 (0.04) µg/ml
Concentration in brain [1]: 0.02 (0.02) µg/ml
Concentration in CSF [2]: 0.05 (0.04) µg/ml
Concentration in brain [2]: 0.01 (0.01) µg/ml
Concentration in plasma [2]: 0.9 (0.4) µg/ml
Concentration in plasma (E19 rats, maternal iv paracetamol 15 mg/kg + digoxin 0.03 mg/kg (PARA+DIG, n=9), median (IQR), listed as paracetamol-sulfate): 0.9 µg/mL
Concentration in CSF [3]: 0.08 (0.05) µg/ml
Concentration in brain [3]: 0.02 (0.02) µg/ml
Concentration in plasma [3]: 1.1 (0.4) µg/ml
Concentration in plasma (E19 rats, maternal iv paracetamol 15 mg/kg + olanzapine 0.15 mg/kg (PARA+OLZ, n=10), median (IQR)): 1.4 (0.5) µg/ml
Concentration in CSF [4]: 0.09 (0.06) µg/ml
Concentration in brain [4]: 0.05 (0.03) µg/ml
Concentration in CSF [5]: 0.06 (0.03) µg/ml
Concentration in plasma [6]: 0.9 (0.3) µg/ml
Concentration in plasma (E19 rats, maternal iv paracetamol 15 mg/kg + valproate 30 mg/kg (PARA+VPA, n=10), median (IQR), all values if <3 detected, listed as paracetamol-sulfate): 0.9 µg/mL
Concentration in CSF [7]: 0.09 (0.05) µg/ml
Concentration in brain [7]: 0.04 (0.03) µg/ml
Concentration in plasma [7]: 1.5 (0.4) µg/ml
Concentration in plasma (E19 rats, maternal iv paracetamol 15 mg/kg monotherapy (PARA, n=10), median (IQR), listed as paracetamol-sulfate): 1.5 µg/mL
Concentration in plasma (P4, monotherapy and combination therapy with any of the drugs investigated): around 5 µg/ml
Concentration in CSF [8]: 0.1 (0.02) µg/ml
Concentration in brain [8]: 0.06 (0.02) µg/ml
Concentration in plasma [8]: 7.5 (1.7) µg/ml
Concentration in CSF [9]: 0.1 (0.02) µg/ml
Concentration in brain [9]: 0.07 (0.04) µg/ml
Concentration in plasma [9]: 7.6 (3.3) µg/ml
Concentration in CSF [10]: 0.1 (1.6) µg/ml
Concentration in plasma [10]: 5.7 (1.4) µg/ml
Concentration in brain [11]: 0.04 µg/mL and 0.05 µg/mL
Concentration in CSF [12]: 0.07 (0.02) µg/ml
Concentration in brain [12]: 0.06 (0.02) µg/ml
Concentration in plasma [12]: 3.8 (0.9) µg/ml
Concentration in CSF [13]: 0.1 (0.04) µg/ml
Concentration in brain [13]: 0.08 (0.01) µg/ml
Concentration in plasma [13]: 7.2 (1.2) µg/ml
Concentration in CSF [14]: 0.05 ± 0.02 µg/mL
Concentration in brain [14]: 0.02 µg/mL
Concentration in plasma [14]: 2.7 (1.0) µg/ml
Concentration in CSF (P4 rats, 30 min after ip paracetamol 15 mg/kg + valproate 30 mg/kg (PARA+VPA, n=4), median (IQR)): 0.06 (0.01) µg/ml
Concentration in brain [15]: 0.05 µg/mL
Concentration in plasma [15]: 4.1 (2.1) µg/ml
Concentration in CSF [16]: 0.09 (0.05) µg/ml
Concentration in brain [16]: 0.09 (0.03) µg/ml
Concentration in plasma [16]: 3.1 (1.8) µg/ml
change in plasma concentration following combination therapy (adults, any of the drugs investigated, Kruskal-Wallis test): no significant changes
Concentration in brain (non-pregnant adult rats, 30 min after ip paracetamol 15 mg/kg + cimetidine 11 mg/kg (PARA+CIM, n=3), median (IQR)): 0.2 µg/mL
Concentration in plasma (non-pregnant adult rats, 30 min after ip paracetamol 15 mg/kg + cimetidine 11 mg/kg (PARA+CIM, n=3), median (IQR), individual values if <3 samples): 5.5 (1.4) µg/ml
Concentration in CSF [17]: 0.02 µg/mL
Concentration in plasma [17]: 7.2 (2.2) µg/ml
Concentration in brain (non-pregnant adult rats, 30 min after ip paracetamol 15 mg/kg + digoxin 0.03 mg/kg (PARA+DIG, n=3), median (IQR), individual values if <3 samples): 0.02 µg/mL
Concentration in CSF [18]: 0.07 (0.03) µg/ml
Concentration in plasma [18]: 12.9 (1.0) µg/ml
Concentration in brain [19]: 0.1 (0.4) µg/ml
Concentration in CSF [20]: 0.02 µg/mL and 0.04 µg/mL
Concentration in brain [20]: 0.1 µg/mL
Concentration in plasma [20]: 11.5 (0.7) µg/ml
Concentration in brain [21]: 0.2 (0.2) µg/ml
Concentration in plasma [21]: 14.8 (2.7) µg/ml
Concentration in brain (non-pregnant adult rats, 30 min after ip paracetamol 15 mg/kg + valproate 30 mg/kg (PARA+VPA, n=3), median (IQR)): 0.1 µg/mL
Concentration in plasma (non-pregnant adult rats, 30 min after ip paracetamol 15 mg/kg + valproate 30 mg/kg (PARA+VPA, n=3), median (IQR), individual values if <3 samples): 12.1 (0.4) µg/ml
Concentration in CSF [22]: 0.02 (0.01) µg/ml
Concentration in brain [22]: 0.1 (0.1) µg/ml
Concentration in plasma [22]: 8.8 (5.8) µg/ml
Structure (SMILES): CC(=O)Nc1ccc(OS(=O)(=O)O)cc1 [Paracetamol-Sulfate, paracetamol-sulfate]

Concentration in CSF [2]: 0.2 µg/mL
Concentration in brain [2]: 0.5 µg/mL
Concentration in brain [4]: 0.7 µg/mL
Concentration in CSF [8]: 0.2 (0.04) µg/ml
Concentration in CSF [9]: 0.1 (0.03) µg/ml
Concentration in brain [9]: 0.1 µg/mL
Concentration in CSF [10]: 0.2 (2) µg/ml
Concentration in brain [11]: 0.1 µg/mL
Concentration in CSF [13]: 0.1 (0.05) µg/ml
Concentration in brain [13]: 0.2 µg/mL
Concentration in CSF [14]: 0.5 µg/mL
Concentration in CSF [16]: 0.2 (0.1) µg/ml
Concentration in CSF [18]: 0.05 (0.04) µg/ml
Concentration in brain [19]: 0.2 µg/mL and 1 µg/mL
Concentration in CSF [21]: 0.1 µg/mL
Concentration in brain [21]: 0.1 µg/mL
Concentration in brain [22]: 2.0 µg/mL
change in plasma concentration following combination therapy (rat, in vivo): no significant changes
Structure (SMILES): CC(=O)Nc1ccc(O[C@@H]2O[C@H](C(=O)O)[C@@H](O)[C@H](O)[C@H]2O)cc1 [Paracetamol-Glucuronide, paracetamol-glucuronide]
Concentration in CSF [1]: N.D. (N.D. (not detected) are values <0.01μg/ml)
Concentration in brain [1]: N.D. (N.D. (not detected) are values <0.01μg/ml)
Concentration in CSF [3]: N.D. (N.D. (not detected) are values <0.01μg/ml)
Concentration in brain [3]: N.D. (N.D. (not detected) are values <0.01μg/ml)
Concentration in CSF [5]: N.D. (N.D. (not detected) are values <0.01μg/ml)
Concentration in brain [6]: N.D. (N.D. (not detected) are values <0.01μg/ml)
Concentration in CSF [7]: N.D. (N.D. (not detected) are values <0.01μg/ml)
Concentration in brain [7]: N.D. (N.D. (not detected) are values <0.01μg/ml)
